Results taken from ChEMBL document CHEMBL1208750, “Synthesis, larvicidal activity, and SAR studies of new benzoylphenylureas containing oxime ether and oxime ester group” (2010).
Values after ≈ are worked out from the molar mass of the structure shown.

How the values were obtained:
Format in all cases: functional
Mythimna separata [1] = experiment: Larvicidal activity against Oriental armyworm at 10 mg/L
Mythimna separata [2] = experiment: Larvicidal activity against Oriental armyworm at 25 mg/L
Mythimna separata [3] = experiment: Larvicidal activity against Oriental armyworm at 200 mg/L
Mythimna separata [4] = experiment: Larvicidal activity against Oriental armyworm at 5 mg/L
Aedes aegypti [5] = experiment: Larvicidal activity against mosquito larvae at 0.5 mg/L
Mythimna separata [6] = experiment: Larvicidal activity against Oriental armyworm at 50 mg/L
Mythimna separata [7] = experiment: Larvicidal activity against Oriental armyworm at 100 mg/L
Aedes aegypti [8] = experiment: Larvicidal activity against mosquito larvae at 0.25 mg/L
Mythimna separata [9] = experiment: Larvicidal activity against Oriental armyworm at 1 mg/L
Aedes aegypti [10] = experiment: Larvicidal activity against mosquito larvae at 0.025 mg/L
Mythimna separata [11] = experiment: Larvicidal activity against Oriental armyworm at 2.5 mg/L
Aedes aegypti [12] = experiment: Larvicidal activity against mosquito larvae at 0.05 mg/L
Mythimna separata [13] = experiment: Larvicidal activity against Oriental armyworm at 0.5 mg/L
Aedes aegypti [14] = experiment: Larvicidal activity against mosquito larvae at 0.1 mg/L
Aedes aegypti [15] = experiment: Larvicidal activity against mosquito larvae at 2 mg/L
Aedes aegypti [16] = experiment: Larvicidal activity against mosquito larvae at 1 mg/L
Aedes aegypti [17] = experiment: Larvicidal activity against mosquito larvae at 0.01 mg/L
Aedes aegypti [18] = experiment: Larvicidal activity against mosquito larvae at 0.005 mg/L
Mythimna separata [19] = experiment: Larvicidal activity against Oriental armyworm at 0.125 mg/L
Aedes aegypti [20] = experiment: Larvicidal activity against mosquito larvae at 0.001 mg/L
Aedes aegypti [21] = experiment: Larvicidal activity against mosquito larvae at 0.0001 mg/L
Aedes aegypti [22] = experiment: Larvicidal activity against mosquito larvae at 0.0025 mg/L
Ostrinia nubilalis = experiment: Larvicidal activity against corn Borer
Plutella xylostella = experiment: Larvicidal activity against diamondback moth
Mythimna separata [23] = experiment: Larvicidal activity against Oriental armyworm at 0.25 mg/L
Spodoptera exigua = experiment: Larvicidal activity against beet armyworm
Aedes aegypti [24] = experiment: Larvicidal activity against mosquito larvae at 0.00025 mg/L

Row | SMILES | Activity (Mythimna separata [1]) [%] | Activity (Mythimna separata [2]) [%] | Activity (Mythimna separata [4]) [%] | Activity (Aedes aegypti [5]) [%] | Activity (Mythimna separata [6]) [%] | Activity (Aedes aegypti [8]) [%] | Activity (Mythimna separata [9]) [%] | Activity (Mythimna separata [11]) [%] | Activity (Mythimna separata [13]) [%] | Activity (Aedes aegypti [14]) [%] | Activity (Aedes aegypti [17]) [%] | other results
1 | Cc1cccc(O/N=C/c2ccc(NC(=O)NC(=O)c3c(F)cccc3F)cc2)c1 | 10 | 30 | 0 | 90 | 50 | 60 | – | – | – | – | – | Activity (Mythimna separata [3]): 100%; Activity (Mythimna separata [7]): 90%
2 | C/C(=N\OC(C)C)c1ccc(NC(=O)NC(=O)c2c(F)cccc2F)cc1 | 100 | – | 100 | 100 | – | 100 | 10 | 65 | 0 | 90 | – | Activity (Aedes aegypti [10]): 30%; Activity (Aedes aegypti [12]): 90%
3 | C/C(=N\OCc1ccccc1)c1ccc(NC(=O)NC(=O)c2c(F)cccc2F)cc1 | 10 | 80 | – | – | 90 | – | – | – | – | – | – | Activity (Aedes aegypti [15]): 0%; Activity (Aedes aegypti [16]): 0%
4 | CC(C)O/N=C(\C#N)c1ccc(NC(=O)NC(=O)c2c(F)cccc2F)cc1 | 80 | – | 40 | – | 100 | 100 | – | 0 | – | 100 | 0 | Activity (Aedes aegypti [10]): 10%; Activity (Aedes aegypti [12]): 50%
5 | N#C/C(=N\OCc1ccccc1)c1ccc(NC(=O)NC(=O)c2c(F)cccc2F)cc1 | – | – | – | 100 | – | 100 | – | – | – | 90 | – | Activity (Mythimna separata [3]): 0%; Activity (Aedes aegypti [12]): 0%
6 | CC(C)O/N=C/c1ccc(NC(=O)NC(=O)c2c(F)cccc2F)c(Cl)c1 | – | – | 100 | 100 | – | – | 10 | 90 | 0 | – | 100 | Activity (Aedes aegypti [18]): 30%
7 | CC(C)O/N=C/c1ccc(NC(=O)NC(=O)c2c(F)cccc2F)c(F)c1 | – | – | – | – | – | – | 100 | 100 | 90 | – | 100 | Activity (Mythimna separata [19]): 0%; Activity (Aedes aegypti [20]): 20%; Activity (Aedes aegypti [21]): 10%; Activity (Aedes aegypti [22]): 50%; LC50 (Ostrinia nubilalis): 7.59 µg/mL (≈ 20 µM); LC50 (Plutella xylostella): 2.75 µg/mL (≈ 7.25 µM); Activity (Mythimna separata [23]): 10%; LC50 (Spodoptera exigua): 4.32 µg/mL (≈ 11.4 µM); Activity (Aedes aegypti [18]): 100%
8 | CC(C)O/N=C/c1ccc(NC(=O)NC(=O)c2c(F)cccc2F)cc1Cl | – | – | 100 | – | – | – | 10 | 90 | 0 | – | 100 | Activity (Aedes aegypti [20]): 10%; Activity (Aedes aegypti [22]): 30%; Activity (Aedes aegypti [18]): 100%
9 | CC(=O)O/N=C/c1ccc(NC(=O)NC(=O)c2c(F)cccc2F)cc1 | 0 | 10 | – | 20 | 20 | 0 | – | – | – | – | – | Activity (Mythimna separata [3]): 100%; Activity (Aedes aegypti [15]): 100%; Activity (Aedes aegypti [16]): 100%; Activity (Mythimna separata [7]): 50%
10 | O=C(NC(=O)c1c(F)cccc1F)Nc1ccc(/C=N/OC(=O)c2ccccc2)cc1 | 80 | 90 | 40 | 100 | – | 80 | – | 0 | – | 30 | – | Activity (Aedes aegypti [16]): 100%
11 | Cc1cc(C)cc(C(=O)O/N=C/c2ccc(NC(=O)NC(=O)c3c(F)cccc3F)cc2)c1 | 100 | 100 | 90 | 100 | – | 100 | – | 0 | – | 90 | – | Activity (Aedes aegypti [10]): 10%; Activity (Aedes aegypti [12]): 90%
12 | CC(C)C(=O)O/N=C/c1ccc(NC(=O)NC(=O)c2c(F)cccc2F)cc1 | 100 | – | 100 | 100 | – | 100 | 10 | 20 | 0 | 70 | – | Activity (Aedes aegypti [10]): 0%; Activity (Aedes aegypti [12]): 10%
13 | O=C(NC(=O)c1c(F)cccc1F)Nc1ccc(/C=N/Oc2ccc(Cl)cc2)cc1 | 100 | – | 100 | – | – | – | 0 | 80 | – | – | – | Activity (Aedes aegypti [20]): 100%; Activity (Aedes aegypti [22]): 100%; Activity (Aedes aegypti [24]): 20%
14 | O=C(NC(=O)c1c(F)cccc1F)Nc1ccc(/C=N/Oc2ccc(Br)cc2)cc1 | 100 | 100 | 90 | – | 90 | – | 0 | 90 | – | – | 100 | Activity (Aedes aegypti [20]): 0%; Activity (Aedes aegypti [21]): 90%; Activity (Aedes aegypti [22]): 40%; Activity (Aedes aegypti [18]): 100%
15 | O=C(NC(=O)c1c(F)cccc1F)Nc1ccc(/C=N/Oc2ccccc2)cc1 | 20 | 40 | 0 | – | – | – | – | – | – | – | 100 | Activity (Mythimna separata [3]): 100%; Activity (Aedes aegypti [22]): 10%; Activity (Aedes aegypti [10]): 100%; Activity (Mythimna separata [7]): 100%; Activity (Aedes aegypti [18]): 20%
16 | CC(C)(C)O/N=C/c1ccc(NC(=O)NC(=O)c2c(F)cccc2F)c(F)c1 | – | – | – | – | – | – | 100 | 100 | 90 | – | – | LC50 (Ostrinia nubilalis): 10 µg/mL (≈ 25.5 µM); LC50 (Plutella xylostella): 0.57 µg/mL (≈ 1.45 µM); Activity (Mythimna separata [23]): 10%; LC50 (Spodoptera exigua): 3.37 µg/mL (≈ 8.57 µM)
17 | CC(C)(C)O/N=C/c1cccc(NC(=O)NC(=O)c2c(F)cccc2F)c1 | – | 90 | – | – | 100 | – | – | – | – | – | – | Activity (Mythimna separata [7]): 100%
18 | CC(C)(C)O/N=C/c1ccccc1NC(=O)NC(=O)c1c(F)cccc1F | – | – | – | – | – | – | – | – | – | – | – | Activity (Mythimna separata [3]): 0%
19 | CC(C)(C)O/N=C/Cc1ccc(NC(=O)NC(=O)c2c(F)cccc2F)cc1 | 80 | 100 | – | – | 100 | – | – | – | – | – | – | –
20 | CC(C)O/N=C/c1ccc(NC(=O)NC(=O)c2c(F)cccc2F)cc1 | – | – | – | – | – | – | 100 | 100 | 50 | – | – | Activity (Aedes aegypti [20]): 0%; Activity (Aedes aegypti [22]): 15%; Activity (Mythimna separata [23]): 0%; Activity (Aedes aegypti [18]): 75%
21 | O=C(NC(=O)c1c(F)cccc1F)Nc1ccc(CO/N=C(/c2ccc(Cl)cc2)C2CC2)cc1 [FLUCYCLOXURON] | 95 | – | 90 | – | – | – | 10 | 50 | 0 | 100 | 0 | LC50 (Ostrinia nubilalis): 9.25 µg/mL (≈ 19.1 µM); LC50 (Plutella xylostella): 72.9 µg/mL (≈ 151 µM); Activity (Aedes aegypti [10]): 15%; LC50 (Spodoptera exigua): 102 µg/mL (≈ 210 µM); Activity (Aedes aegypti [12]): 100%
